Data published in publication PMC3814616, “BRAF inhibitors suppress apoptosis through off-target inhibition of JNK signaling” (eLife, 2013).

Assays:
Assay in all cases: Quantitative competitive binding assay (KINOMEscan)
[1] = target: T1, BLK (Homo sapiens, UniProt P51451); details: for IC50: estimated Kd, averaged pointwise estimates, transformed Hill equation, read-out: Calculated estimate of IC50; for remaining binding at 0.05 µM: read-out: Percent control (50 nM); for remaining binding at 0.2 µM: read-out: Percent control (200 nM); for remaining binding at 1 µM: read-out: Percent control (1000 nM); for remaining binding at 10 µM: read-out: Percent control (10 μM)
T1 construct: purchased KINOMEscan (DiscoveRx), San Diego, CA

[2] = target: T2, MAP3K15 (Homo sapiens, UniProt Q6ZN16); details: for remaining binding at 0.05 µM: read-out: Percent control (50 nM); for remaining binding at 0.2 µM: read-out: Percent control (200 nM); for remaining binding at 1 µM: read-out: Percent control (1000 nM); for remaining binding at 10 µM: read-out: Percent control (10 μM)
T2 construct: purchased KINOMEscan (DiscoveRx), San Diego, CA
T2 sequence (Q6ZN16 1-1313): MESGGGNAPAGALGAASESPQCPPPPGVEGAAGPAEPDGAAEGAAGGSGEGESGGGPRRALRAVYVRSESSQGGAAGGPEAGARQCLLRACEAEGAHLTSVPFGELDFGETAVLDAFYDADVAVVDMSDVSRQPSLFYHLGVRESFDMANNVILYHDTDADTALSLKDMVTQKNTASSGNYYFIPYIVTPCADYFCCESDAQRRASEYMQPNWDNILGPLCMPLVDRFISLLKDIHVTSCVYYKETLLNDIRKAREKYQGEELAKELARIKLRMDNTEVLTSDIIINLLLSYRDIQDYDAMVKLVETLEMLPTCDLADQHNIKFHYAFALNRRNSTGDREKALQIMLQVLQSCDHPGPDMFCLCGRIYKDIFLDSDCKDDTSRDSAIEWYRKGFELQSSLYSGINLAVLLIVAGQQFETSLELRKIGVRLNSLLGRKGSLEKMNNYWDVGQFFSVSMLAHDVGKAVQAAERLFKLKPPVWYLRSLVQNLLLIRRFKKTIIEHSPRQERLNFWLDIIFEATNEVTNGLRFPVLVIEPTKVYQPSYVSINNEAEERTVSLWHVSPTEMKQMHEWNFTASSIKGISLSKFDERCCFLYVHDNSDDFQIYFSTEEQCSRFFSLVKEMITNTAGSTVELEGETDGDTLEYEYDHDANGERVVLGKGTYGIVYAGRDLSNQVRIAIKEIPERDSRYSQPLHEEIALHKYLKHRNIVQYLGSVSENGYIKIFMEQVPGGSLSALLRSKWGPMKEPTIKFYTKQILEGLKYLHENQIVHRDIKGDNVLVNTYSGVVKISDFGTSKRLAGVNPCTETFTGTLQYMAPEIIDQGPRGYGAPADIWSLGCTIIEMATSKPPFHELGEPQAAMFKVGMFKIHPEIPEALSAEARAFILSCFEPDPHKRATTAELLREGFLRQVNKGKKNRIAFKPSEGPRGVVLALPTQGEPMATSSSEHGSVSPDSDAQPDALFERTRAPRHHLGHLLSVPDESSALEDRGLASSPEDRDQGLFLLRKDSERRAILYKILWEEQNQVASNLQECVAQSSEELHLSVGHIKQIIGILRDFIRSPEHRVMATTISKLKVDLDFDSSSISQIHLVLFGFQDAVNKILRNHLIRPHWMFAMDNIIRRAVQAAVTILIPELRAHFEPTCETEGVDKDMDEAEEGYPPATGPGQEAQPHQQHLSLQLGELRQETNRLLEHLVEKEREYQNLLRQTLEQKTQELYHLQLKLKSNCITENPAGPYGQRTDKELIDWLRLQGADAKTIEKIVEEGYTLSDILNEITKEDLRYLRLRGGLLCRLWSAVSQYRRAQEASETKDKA

[3] = target: T3, MAP3K4 (Homo sapiens, UniProt Q9Y6R4); details: for remaining binding at 0.05 µM: read-out: Percent control (50 nM); for remaining binding at 0.2 µM: read-out: Percent control (200 nM); for remaining binding at 1 µM: read-out: Percent control (1000 nM); for remaining binding at 10 µM: read-out: Percent control (10 μM)
T3 construct: purchased KINOMEscan (DiscoveRx), San Diego, CA

[4] = target: T4, MKK7 (MAP2K7) (Homo sapiens, UniProt O14733); details: for remaining binding at 0.05 µM: read-out: Percent control (50 nM); for remaining binding at 0.2 µM: read-out: Percent control (200 nM); for remaining binding at 1 µM: read-out: Percent control (1000 nM); for remaining binding at 10 µM: read-out: Percent control (10 μM)
T4 construct: purchased KINOMEscan (DiscoveRx), San Diego, CA
T4 sequence (O14733 1-419): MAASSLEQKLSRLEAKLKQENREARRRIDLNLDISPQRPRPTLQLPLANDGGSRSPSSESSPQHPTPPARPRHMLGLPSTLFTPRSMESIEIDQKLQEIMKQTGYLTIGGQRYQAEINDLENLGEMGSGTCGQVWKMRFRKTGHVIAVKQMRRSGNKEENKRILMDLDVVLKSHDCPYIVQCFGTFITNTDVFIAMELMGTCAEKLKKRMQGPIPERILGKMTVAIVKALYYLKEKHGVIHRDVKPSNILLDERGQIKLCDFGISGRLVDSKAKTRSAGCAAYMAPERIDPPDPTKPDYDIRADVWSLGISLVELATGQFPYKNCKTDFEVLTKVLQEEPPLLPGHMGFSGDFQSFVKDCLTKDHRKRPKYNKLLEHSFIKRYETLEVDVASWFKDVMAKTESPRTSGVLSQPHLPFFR

[5] = target: T5, MST1 (STK4) (Homo sapiens, UniProt Q13043); details: for remaining binding at 0.05 µM: read-out: Percent control (50 nM); for remaining binding at 0.2 µM: read-out: Percent control (200 nM); for remaining binding at 1 µM: read-out: Percent control (1000 nM); for remaining binding at 10 µM: read-out: Percent control (10 μM)
T5 construct: purchased KINOMEscan (DiscoveRx), San Diego, CA
T5 sequence (Q13043 1-487): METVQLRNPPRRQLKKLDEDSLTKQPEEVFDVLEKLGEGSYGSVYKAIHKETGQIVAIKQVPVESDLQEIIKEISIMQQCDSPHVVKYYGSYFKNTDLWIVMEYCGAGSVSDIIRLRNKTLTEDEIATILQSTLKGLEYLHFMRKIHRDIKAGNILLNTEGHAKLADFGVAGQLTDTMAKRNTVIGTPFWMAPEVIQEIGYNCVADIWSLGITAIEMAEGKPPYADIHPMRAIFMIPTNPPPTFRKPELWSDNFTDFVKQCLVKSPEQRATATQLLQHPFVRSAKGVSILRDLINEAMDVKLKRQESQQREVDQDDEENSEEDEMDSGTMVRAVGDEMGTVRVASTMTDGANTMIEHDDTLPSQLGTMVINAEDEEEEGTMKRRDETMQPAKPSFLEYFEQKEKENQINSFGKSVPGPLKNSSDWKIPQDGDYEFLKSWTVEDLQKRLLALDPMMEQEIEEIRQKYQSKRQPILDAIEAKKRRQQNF

[6] = target: T6, PAK1 (Homo sapiens, UniProt Q13153); details: for remaining binding at 0.05 µM: read-out: Percent control (50 nM); for remaining binding at 0.2 µM: read-out: Percent control (200 nM); for remaining binding at 1 µM: read-out: Percent control (1000 nM); for remaining binding at 10 µM: read-out: Percent control (10 μM)
T6 construct: purchased KINOMEscan (DiscoveRx), San Diego, CA
T6 sequence (Q13153 whole entry): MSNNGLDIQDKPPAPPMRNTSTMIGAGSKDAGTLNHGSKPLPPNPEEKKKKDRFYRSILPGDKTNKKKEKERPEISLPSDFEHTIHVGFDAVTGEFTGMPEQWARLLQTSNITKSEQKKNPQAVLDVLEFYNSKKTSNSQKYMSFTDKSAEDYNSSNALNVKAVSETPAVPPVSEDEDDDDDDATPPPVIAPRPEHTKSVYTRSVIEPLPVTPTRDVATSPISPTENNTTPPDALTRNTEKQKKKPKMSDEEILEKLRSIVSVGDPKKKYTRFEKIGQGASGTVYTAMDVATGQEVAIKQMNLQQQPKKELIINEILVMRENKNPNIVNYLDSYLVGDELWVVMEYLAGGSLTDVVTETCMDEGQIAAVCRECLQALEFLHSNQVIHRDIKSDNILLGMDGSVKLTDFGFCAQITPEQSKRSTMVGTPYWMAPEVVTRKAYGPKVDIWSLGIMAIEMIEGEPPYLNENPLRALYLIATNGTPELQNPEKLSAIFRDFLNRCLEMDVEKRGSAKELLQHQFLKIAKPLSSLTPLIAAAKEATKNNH

T3 sequence (Q9Y6R4 whole entry): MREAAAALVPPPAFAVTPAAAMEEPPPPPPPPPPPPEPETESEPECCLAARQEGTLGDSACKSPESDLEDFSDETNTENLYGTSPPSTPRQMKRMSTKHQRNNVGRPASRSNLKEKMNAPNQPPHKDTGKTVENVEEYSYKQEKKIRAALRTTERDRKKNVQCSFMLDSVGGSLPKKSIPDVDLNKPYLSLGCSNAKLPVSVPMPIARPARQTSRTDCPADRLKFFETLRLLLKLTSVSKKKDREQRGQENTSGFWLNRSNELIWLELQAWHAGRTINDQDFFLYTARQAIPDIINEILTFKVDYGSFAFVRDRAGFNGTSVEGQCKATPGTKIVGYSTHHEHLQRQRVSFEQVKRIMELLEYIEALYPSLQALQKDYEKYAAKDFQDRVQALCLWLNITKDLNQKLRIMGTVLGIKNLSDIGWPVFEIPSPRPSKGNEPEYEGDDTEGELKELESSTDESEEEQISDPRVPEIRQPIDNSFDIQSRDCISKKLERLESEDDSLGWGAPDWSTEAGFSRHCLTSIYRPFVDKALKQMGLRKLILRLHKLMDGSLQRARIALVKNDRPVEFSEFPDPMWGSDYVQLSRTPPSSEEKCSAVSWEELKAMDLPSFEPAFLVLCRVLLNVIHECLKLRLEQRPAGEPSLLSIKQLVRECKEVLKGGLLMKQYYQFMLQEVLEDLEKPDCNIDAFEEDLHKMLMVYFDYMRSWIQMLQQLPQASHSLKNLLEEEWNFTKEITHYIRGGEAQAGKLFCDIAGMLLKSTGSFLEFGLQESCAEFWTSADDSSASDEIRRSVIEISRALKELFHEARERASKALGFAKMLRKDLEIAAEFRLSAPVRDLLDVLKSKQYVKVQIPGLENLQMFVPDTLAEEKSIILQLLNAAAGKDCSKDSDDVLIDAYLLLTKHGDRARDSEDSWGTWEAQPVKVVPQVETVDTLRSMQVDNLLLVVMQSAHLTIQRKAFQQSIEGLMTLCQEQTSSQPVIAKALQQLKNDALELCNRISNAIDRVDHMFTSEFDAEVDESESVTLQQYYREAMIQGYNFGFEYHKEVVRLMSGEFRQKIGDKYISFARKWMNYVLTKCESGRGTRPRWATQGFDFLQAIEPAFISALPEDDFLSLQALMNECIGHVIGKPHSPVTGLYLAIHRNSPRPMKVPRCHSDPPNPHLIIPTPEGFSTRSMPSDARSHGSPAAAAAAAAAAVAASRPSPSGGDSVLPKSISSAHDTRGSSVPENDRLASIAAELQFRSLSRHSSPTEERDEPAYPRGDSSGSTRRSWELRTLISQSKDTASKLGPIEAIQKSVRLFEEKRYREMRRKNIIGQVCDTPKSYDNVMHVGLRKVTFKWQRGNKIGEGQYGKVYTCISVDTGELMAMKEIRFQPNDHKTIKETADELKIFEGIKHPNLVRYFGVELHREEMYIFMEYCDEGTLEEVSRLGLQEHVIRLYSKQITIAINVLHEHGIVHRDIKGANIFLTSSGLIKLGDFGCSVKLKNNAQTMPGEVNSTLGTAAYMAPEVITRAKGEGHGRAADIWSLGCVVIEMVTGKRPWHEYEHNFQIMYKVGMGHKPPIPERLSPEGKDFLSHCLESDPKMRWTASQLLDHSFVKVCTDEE
T1 sequence (P51451 whole entry): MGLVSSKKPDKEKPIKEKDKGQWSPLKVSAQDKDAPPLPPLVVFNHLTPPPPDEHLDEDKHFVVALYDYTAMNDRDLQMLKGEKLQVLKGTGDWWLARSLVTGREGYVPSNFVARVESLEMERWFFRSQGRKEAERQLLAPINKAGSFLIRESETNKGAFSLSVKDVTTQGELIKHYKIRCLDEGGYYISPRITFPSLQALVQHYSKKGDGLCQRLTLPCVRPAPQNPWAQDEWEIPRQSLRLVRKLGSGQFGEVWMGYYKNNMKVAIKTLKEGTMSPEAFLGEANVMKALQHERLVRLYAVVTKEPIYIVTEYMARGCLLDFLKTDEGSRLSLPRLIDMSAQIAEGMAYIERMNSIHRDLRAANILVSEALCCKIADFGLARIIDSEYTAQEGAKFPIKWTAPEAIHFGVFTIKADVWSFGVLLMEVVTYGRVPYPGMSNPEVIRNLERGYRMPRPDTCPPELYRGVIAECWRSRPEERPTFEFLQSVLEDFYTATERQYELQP

Row | SMILES | IC50 [1] | remaining binding at 0.05 µM [1] | remaining binding at 0.2 µM [1] | remaining binding at 1 µM [1] | remaining binding at 10 µM [1] | remaining binding at 0.05 µM [2] | remaining binding at 0.2 µM [2] | remaining binding at 1 µM [2] | remaining binding at 10 µM [2] | remaining binding at 0.05 µM [3] | remaining binding at 0.2 µM [3] | remaining binding at 1 µM [3] | remaining binding at 10 µM [3] | remaining binding at 0.05 µM [4] | remaining binding at 0.2 µM [4] | remaining binding at 1 µM [4] | remaining binding at 10 µM [4] | remaining binding at 0.05 µM [5] | remaining binding at 0.2 µM [5] | remaining binding at 1 µM [5] | also measured
1 | CCCS(=O)(=O)Nc1ccc(F)c(C(=O)c2c[nH]c3ncc(Cl)cc23)c1F [PLX4720] | 447 nM | 91% | 78% | 32% | 1% | 94% | 97% | 91% | 59% | 100% | 100% | 100% | 65% | 100% | 100% | 100% | 84% | 100% | 93% | 84% | IC50 ([5]; estimated Kd, averaged pointwise estimates, transformed Hill equation, read-out: Calculated estimate of IC50): 6710 nM; remaining binding at 10 µM [5]: 55%; remaining binding at 0.05 µM [6]: 93%; remaining binding at 0.2 µM [6]: 97%; remaining binding at 1 µM [6]: 83%; remaining binding at 10 µM [6]: 22%
2 | CCCS(=O)(=O)Nc1ccc(F)c(C(=O)c2c[nH]c3ncc(-c4ccc(Cl)cc4)cc23)c1F [vemurafenib] | 518 nM | 96% | 66% | 30% | 0.55% | 84% | 100% | 84% | 91% | 95% | 92% | 87% | 46% | 97% | 95% | 94% | 85% | 99% | 83% | 51% | remaining binding at 10 µM [5]: 12%; remaining binding at 0.05 µM [6]: 99%; remaining binding at 0.2 µM [6]: 98%; remaining binding at 1 µM [6]: 91%; remaining binding at 10 µM [6]: 46%
